US9670261B2 (Sanofi, priority 2012, dated 2017)
pEC50: −log10 of the molar value. *1 amine or outer side, *2 acyl side, *3 side chain or, on linkers, in order; H or OH if unused. Where a SMILES comes first, the peptide text is derived from it. Side-chain parts run from the residue outwards. [ ]: non-standard residue; d: D form. The star is where a group is joined. γGlu = O=C(O)[C@H](CCC(=O)[*:2])N[*:1]; Palmitoyl = CCCCCCCCCCCCCCCC(=O)*; Aib = CC(C)(N)C(=O)O

Tests used:
human GIP receptor = molecular target: T1, human GIP receptor (Homo sapiens, UniProt P48546); experiment: cAMP response (HTRF) of HEK-293 cells stably expressing human GIP receptor; type: cell-based; conditions: Table 7; cAMP formation; read-out: EC50 hGIP R
T1 construct: expressed in transfected cells
T1 sequence (P48546 22-466): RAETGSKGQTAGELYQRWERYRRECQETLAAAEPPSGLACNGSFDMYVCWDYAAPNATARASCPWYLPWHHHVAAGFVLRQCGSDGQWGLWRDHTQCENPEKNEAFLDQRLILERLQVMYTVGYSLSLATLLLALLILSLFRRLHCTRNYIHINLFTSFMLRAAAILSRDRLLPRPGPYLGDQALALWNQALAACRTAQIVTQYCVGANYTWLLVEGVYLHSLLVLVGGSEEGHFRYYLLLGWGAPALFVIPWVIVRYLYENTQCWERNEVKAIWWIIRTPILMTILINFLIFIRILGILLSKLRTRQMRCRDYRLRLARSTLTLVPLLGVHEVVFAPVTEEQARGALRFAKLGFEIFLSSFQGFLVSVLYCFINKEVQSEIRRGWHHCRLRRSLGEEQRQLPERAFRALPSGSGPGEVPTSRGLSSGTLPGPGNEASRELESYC
In short: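 HTRF read-out of cellular cAMP after 30 min compound exposure at room temperature. Accutase-detached cells were suspended at 400000 cells/ml in HBSS buffer containing 20 mM HEPES, 0.1% BSA and 2 mM IBMX phosphodiesterase inhibitor.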

[1] = system: female diet-induced obese (DIO) C57BL/6NCrl mice; experiment: Blood glucose and body weight in DIO mice, 18 weeks on high-fat diet (method 1); type: in vivo; conditions: for decrease of body weight, relative change from baseline: 4 weeks; for Bodyfat change / Overall weight change: 4-week treatment, mean ± SEM
Method: Female C57BL/6NCrl mice were housed in groups in a specific pathogen-free barrier facility on a 12 h light/dark cycle with free access to water and high-fat diet. After 18 weeks on high-fat diet, mice were stratified to treatment groups (n=8), so that each group had similar mean body weight. An aged-matched group with ad libitum access to standard chow was included as standard control group.
(§1) Before the experiment, mice were subcutaneously (s.c.) injected with vehicle solution and weighed for 3 days to acclimate them to the procedures.
The volume of administration was 5 mL/kg. The animals had access to water and their corresponding diet during the experiment, food consumption was determined at all time points of blood sampling. Blood glucose levels were measured at t=0.5 h, t=1 h, t=2 h, t=4 h, t=6 h, t=8 h, and t=24 h (method: d-glucose hexokinase, hemolysate, AU640 Beckman Coulter). Blood sampling was performed by tail incision without anaesthesia.
Body weight was recorded daily. On days 6 and 28, total fat mass was measured by nuclear magnetic resonance (NMR) using a Bruker minispec (Ettlingen, Germany).
(§2) Statistical analyses were performed with Everstat 6.0 by repeated measures two-way ANOVA and Dunnett's post-hoc analyses (glucose profile) and 1-way-ANOVA, followed by Dunnett's post-hoc test (body weight, body fat). Differences versus vehicle-treated DIO control mice were considered statistically significant at the p<0.05 level.
Diet-induced obese female C57BL/6NCrl mice were administered daily in the afternoon, at the end of the light phase (12 h lights on) with 10, 30 and 100 μg/kg of SEQ ID NO: 9 or phosphate buffered solution (vehicle control on standard or high-fat diet) subcutaneously. On day 6 of treatment and at predefined time points, more blood samples were taken to measure blood glucose and generate the blood glucose profile over 24 h.
Female obese C57BL/6NCrl mice were treated for 4 weeks once daily subcutaneously in the afternoon, at the end of the light phase (12 h lights on) with 10, 30 or 100 μg/kg SEQ ID NO: 9 or vehicle. Body weight was recorded daily, and body fat content was determined before the start of treatment and after 4 weeks of treatment.

[2] = system: female diet-induced obese (DIO) C57BL/6NCrl mice; experiment: Body weight in DIO mice, 14 weeks of prefeeding with high-fat diet (method 2); type: in vivo
Method: Female C57BL/6NCrl mice were housed in groups in a specific pathogen-free barrier facility on a 12 h light/dark cycle with free access to water and high-fat diet. After 14 weeks on high-fat diet, mice were stratified to treatment groups (n=8), so that each group had similar mean body weight.
An aged-matched group with ad libitum access to standard chow and water was included as standard control group.
as §1
Body weight was recorded daily.
as §2
Female obese C57BL/6NCrl mice were treated for 3 weeks once daily subcutaneously in the late afternoon, prior the end of the light phase (12 h lights on) with 10 μg/kg SEQ ID NO: 9 and SEQ ID NO: 21 or vehicle. Body weight was recorded daily.

[3] = Chemical stability in solution, 7 days at 25° C. (% remaining peptide); conditions: % remaining peptide after 7 days at 25° C.
Method: After that time course, the sample was centrifuged for 20 min at 4000 rpm and the supernatant was analysed with HPLC-UV. For determination of the amount of the remaining peptide, the peak areas of the target compound at t0 and t7 were compared, resulting in “% remaining peptide”, following the equation % remaining peptide=[(peak area peptide t7)×100]/peak area peptide t0.
The chemical stability is expressed as “% remaining peptide”.

## CCCCCCCCCCCCCCCC(=O)N[C@@H](CCC(=O)NCCCC[C@H](NC(=O)[C@H](CCC(N)=O)NC(=O)[C@@H](NC(=O)[C@H](CO)NC(=O)[C@H](CC(C)C)NC(=O)[C@H](CC(=O)O)NC(=O)[C@H](CO)NC(=O)[C@@H](NC(=O)[C@H](Cc1ccccc1)NC(=O)[C@@H](NC(=O)CNC(=O)[C@H](CCC(=O)O)NC(=O)C(C)(C)NC(=O)[C@@H](N)Cc1ccc(O)cc1)[C@@H](C)O)[C@@H](C)O)[C@@H](C)CC)C(=O)N[C@@H](CCC(=O)O)C(=O)N[C@@H](CCCCN)C(=O)N[C@@H](CCCNC(=N)N)C(=O)N[C@@H](C)C(=O)N[C@@H](C)C(=O)NC(C)(C)C(=O)N[C@@H](CCC(=O)O)C(=O)N[C@@H](Cc1ccccc1)C(=O)N[C@H](C(=O)N[C@@H](CCC(=O)O)C(=O)N[C@@H](Cc1c[nH]c2ccccc12)C(=O)N[C@@H](CC(C)C)C(=O)N[C@@H](CCCCN)C(=O)N[C@@H](CC(N)=O)C(=O)N[C@H](C(=O)NCC(=O)N1CCC[C@H]1C(=O)N[C@@H](CO)C(=O)N[C@@H](CO)C(=O)NCC(=O)N[C@@H](C)C(=O)N1CCC[C@H]1C(=O)N1CCC[C@H]1C(=O)N1CCC[C@H]1C(=O)N[C@@H](CO)C(N)=O)[C@@H](C)O)[C@@H](C)CC)C(=O)O [SEQ ID NO: 9, Y-Aib-E-G-T-F-T-S-D-L-S-I-Q-K(γE-x53)-E-K-R-A-A-Aib-E-F-I-E-W-L-K-N-T-G-P-S-S-G-A-P-P-P-S-NH2] (H-Y[Aib]EGTFTSDLSIQK([γGlu-Palmitoyl])EKRAA[Aib]EFIEWLKNTGPSSGAPPPS-NH2)
Human GIP receptor
  pEC50: 11.24
[1]; 10 μg/kg s.c. once daily
  decrease of body weight, relative change from baseline: 13.3-16.4%
[1]; 10 μg/kg
  Bodyfat change: -4.2 ± 0.4 g
  Overall weight change: -5.0 ± 0.5 g
[1]; 30 μg/kg s.c. once daily
  decrease of body weight, relative change from baseline: 17.6-20.9%
[1]; 30 μg/kg
  Bodyfat change: -6.1 ± 0.4 g
  Overall weight change: -6.9 ± 0.5 g
[1]; 100 μg/kg s.c. once daily
  decrease of body weight, relative change from baseline: 21.7-22.7%
[1]; 100 μg/kg
  Bodyfat change: -6.4 ± 0.5 g
  Overall weight change: -7.3 ± 0.6 g
[1]; day 6 of treatment, 10, 30 and 100 μg/kg s.c. daily
  basal blood glucose levels compared to DIO control mice: dose-dependently decreased
[2]; 10 μg/kg s.c. once daily, 3 weeks
  decrease of body weight, relative change from baseline: up to 15.1%
[2]; 10 μg/kg, 3-week treatment, mean ± SEM
  Overall weight change: -6.2 ± 0.4 g
[3]; pH 4.5
  Stability (pH 4.5): 92.5%
[3]; pH 7.4
  Stability (pH 7.4): 97.7%
